In PubChem BioAssay (NCI):
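Cultured in 96-well plates, cells were exposed to test compound for 48 hours across five concentrations. GI50 marks 50% less growth. TGI is the concentration that stops growth completely.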

Assays:
Test in all cases: NCI-60 cell line screen, 48 h
ACHN renal = tested on: ACHN renal
HL-60(TB) leukemia = tested on: HL-60(TB) leukemia
IGROV1 ovarian = tested on: IGROV1 ovarian
NCI-H23 lung = tested on: NCI-H23 lung
NCI-H460 lung = tested on: NCI-H460 lung
NCI-H522 lung = tested on: NCI-H522 lung
OVCAR-4 ovarian = tested on: OVCAR-4 ovarian
SF-539 CNS = tested on: SF-539 CNS
SK-MEL-28 melanoma = tested on: SK-MEL-28 melanoma
SR leukemia = tested on: SR leukemia

Row | Structure (SMILES) | GI50 (ACHN renal) [µM] | TGI (ACHN renal) [µM] | GI50 (HL-60(TB) leukemia) [µM] | GI50 (IGROV1 ovarian) [µM] | TGI (IGROV1 ovarian) [µM] | GI50 (NCI-H23 lung) [µM] | TGI (NCI-H23 lung) [µM] | GI50 (NCI-H460 lung) [µM] | TGI (NCI-H460 lung) [µM] | GI50 (NCI-H522 lung) [µM] | TGI (NCI-H522 lung) [µM] | GI50 (OVCAR-4 ovarian) [µM] | TGI (OVCAR-4 ovarian) [µM] | GI50 (SF-539 CNS) [µM] | TGI (SF-539 CNS) [µM] | GI50 (SK-MEL-28 melanoma) [µM] | TGI (SK-MEL-28 melanoma) [µM] | GI50 (SR leukemia) [µM] | TGI (SR leukemia) [µM] | TGI (HL-60(TB) leukemia) [µM]
1 | COC(=O)[C@@H](C)C[C@H](Cc1ccc(F)cc1)NC(=O)c1csc([C@@H](C[C@H](C(C)C)N(C)C(=O)[C@@H](NC(=O)[C@H]2CCCCN2C)C2CC2)OC(C)=O)n1 | 1.98 | > 25 | 0.054 | 0.34 | > 25 | 1.14 | > 25 | 0.255 | > 25 | 0.0577 | 0.213 | 2.37 | > 25 | 0.408 | 1.49 | 1.05 | > 25 | 0.0282 | > 25 | –
2 | Cc1ccc(NC(=O)CCc2nnc3s/c(=C\C=C\c4ccccc4)c(=O)n23)cc1 | – | > 100 | – | – | > 100 | – | > 100 | – | > 100 | – | > 100 | – | > 56.2 | – | > 100 | – | > 100 | – | 65.6 | > 79.7
3 | NC1=C(O)/C(=N/NS(=O)(=O)c2ccccc2)C(c2ccc3c(c2)OCO3)O1 (stereo not drawn) | – | > 100 | – | – | > 100 | – | > 100 | – | > 100 | – | > 100 | – | > 100 | – | > 100 | – | > 100 | – | > 100 | > 100
4 | COc1ccc(C2=NN(C(C)=O)c3nc4ccccc4nc3O2)cc1 | – | > 100 | – | – | 27.4 | – | > 100 | – | > 100 | – | 63.8 | – | 98.4 | – | 43.1 | – | > 100 | – | > 100 | > 100
5 | COc1cc(OCCCN2CCCC2)ccc1Nc1ncc(Cl)c(Nc2ccccc2P(C)(C)=O)n1 | 2.46 | 16.7 | 1.36 | 1.41 | 22.5 | 1.98 | 13.2 | 2.47 | 12 | 0.811 | 3.95 | 1.52 | 11.7 | 3.49 | 12.8 | 6.34 | 26.6 | 0.0173 | – | 6.19
6 | Cc1ccc([N+](=O)[O-])cc1NC(=O)C(=O)Cc1nc2ccc(C(=O)c3ccccc3)cc2[nH]c1=O | – | > 100 | – | – | > 100 | – | > 100 | – | > 100 | – | > 100 | – | > 100 | – | > 100 | – | > 100 | – | > 100 | > 100
7 | CC1(C)N=C(N)N=C(N)N1c1cccc(CCCCc2ccc(Cl)c(S(=O)(=O)F)c2)c1 | 20.9 | > 100 | 0.563 | 0.66 | 18.8 | 2.83 | 18.1 | 0.938 | 14.5 | 1.26 | 18.8 | 11.8 | 29.6 | 0.504 | 13 | 7.67 | 21.2 | 2.44 | 16.8 | 12.1
8 | O=C(O)C(Cc1ccccc1)N=Cc1nc(-c2ccccc2)oc1O (stereo not drawn) | – | > 100 | – | – | > 100 | – | > 100 | – | > 100 | – | > 100 | – | > 100 | – | > 100 | – | > 100 | – | > 100 | > 100
9 | COc1nc2c(c(=O)n1C)CN(c1ccccc1)C(=O)CN2C | 49.9 | > 100 | 49.8 | 4.33 | > 100 | 95.1 | > 100 | 60.2 | > 100 | 96.7 | > 100 | 71.2 | > 100 | > 100 | > 100 | 70 | > 100 | 17 | > 100 | > 100
10 | CC(=O)N(N=O)c1ccc(N(N=O)C(C)=O)cc1 | – | > 100 | – | – | > 100 | – | > 100 | – | > 100 | – | > 100 | – | > 100 | – | > 100 | – | > 100 | – | > 100 | > 100
11 | O=C(/C=C/c1ccc(-c2ccccc2)cc1)c1ccccc1 | – | > 100 | – | – | 69.1 | – | 41.8 | – | 50.9 | – | 35.4 | – | > 100 | – | 32.2 | – | 67.5 | – | 87.1 | > 100
12 | N[C@@H](Cc1c[nH]c2ccccc12)C(=O)NC1CCN(Cc2c[nH]c3ccc(Cl)cc23)CC1 | 13.4 | 27.7 | 7.04 | 8.78 | 23.4 | 15.3 | 30.7 | 4.71 | 16 | 10 | 22.7 | 8.14 | 22 | 5.62 | 20.2 | 1.99 | 4.48 | 2.33 | 6.46 | 24.4
13 | Oc1c(CN2CCCCC2)ccc2cccnc12 | 1.87 | > 100 | 3.34 | 2.52 | 7.8 | 6.84 | 36.1 | 2.31 | 7.62 | 3.6 | 10.9 | 2.98 | 9.59 | 4.89 | 39.5 | 9.23 | > 100 | 3.36 | > 100 | 12.8
